Laboratory results: patent US20220389007A1, “INHIBITORS OF HUMAN IMMUNODEFICIENCY VIRUS REPLICATION” (VIIV HEALTHCARE UK (No. 5) LIMITED, priority 2019, published 2022)

Key:
recombinant NL4-3 virus = test: HIV cell culture assay (antiviral activity, luciferase readout); assay type: cell-based; details: Human immunodeficiency virus 1, NL43, MT2, MT-2 cells infected for 4-5 days with recombinant NL4-3 virus carrying Renilla luciferase
Outline: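 MT-2 cells infected for 4-5 days with NL4-3 reference virus carrying Renilla luciferase in place of part of nef, in presence of serial compound dilutions. Luciferase read with live-cell substrate; EC50 from median effect equation fit.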

[1] = Compound cytotoxicity, XTT-based colorimetric assay; assay type: cell-based; details: human; uninfected MT2 cells, day 4, XTT assay
Outline: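 Run under the antiviral-assay protocol but without virus. Viability was read on day 4 and CC50 values were derived from the readout.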

## Cc1cc(-c2ccc3c(=O)n(-c4ccc(Cl)c5c(NS(C)(=O)=O)nn(C)c45)c([C@H](Cc4cc(F)cc(F)c4)NC(=O)Cn4nc(C(F)F)c5c4C(F)(F)[C@@H]4C[C@H]54)nc3n2)n(C)n1 (atropisomer, axis not shown; (P)) [Example 70, N-((S)-1-((3P)-3-(4-chloro-1-methyl-3-(methylsulfonamido)-1H-indazol-7-yl)-7-(1,3-dimethyl-1H-pyrazol-5-yl)-4-oxo-3,4-dihydropyrido[2,3-d]pyrimidin-2-yl)-2-(3,5-difluorophenyl)ethyl)-2-((3bS,4aR)-3-(difluoromethyl)-5,5-difluoro-3b,4,4a,5-tetrahydro-1H-cyclopropa[3,4]cyclopenta[1,2-c]pyrazol-1-yl)acetamide]
Recombinant NL4-3 virus
  EC50: 41 pM
[1]
  CC50 at 4 day: > 100000 pM

## Cn1nc(NS(C)(=O)=O)c2c(Cl)ccc(-n3c([C@H](Cc4cc(F)cc(F)c4)NC(=O)Cn4nc(C(F)F)c5c4C(F)(F)[C@@H]4C[C@H]54)nc4nc(-c5ccn(CC(F)(F)F)n5)ccc4c3=O)c21 (atropisomer, axis not shown; (P)) [Example 73, N-((S)-1-((3P)-3-(4-chloro-1-methyl-3-(methylsulfonamido)-1H-indazol-7-yl)-4-oxo-7-(1-(2,2,2-trifluoroethyl)-1H-pyrazol-3-yl)-3,4-dihydropyrido[2,3-d]pyrimidin-2-yl)-2-(3,5-difluorophenyl)ethyl)-2-((3bS,4aR)-3-(difluoromethyl)-5,5-difluoro-3b,4,4a,5-tetrahydro-1H-cyclopropa[3,4]cyclopenta[1,2-c]pyrazol-1-yl)acetamide]
Recombinant NL4-3 virus
  EC50: 29 pM
[1]
  CC50 at 4 day: > 100000 pM

## Cn1nc(NS(C)(=O)=O)c2c(Cl)ccc(-n3c([C@H](Cc4cc(F)cc(F)c4)NC(=O)Cn4nc(C(F)F)c5c4C(F)(F)[C@@H]4C[C@H]54)nc4nc(-c5cc(C(F)(F)F)ncn5)ccc4c3=O)c21 (atropisomer, axis not shown; (P)) [Example 15, N-((S)-1-((3P)-3-(4-chloro-1-methyl-3-(methylsulfonamido)-1H-indazol-7-yl)-4-oxo-7-(6-(trifluoromethyl)pyrimidin-4-yl)-3,4-dihydropyrido[2,3-d]pyrimidin-2-yl)-2-(3,5-difluorophenyl)ethyl)-2-((3bS,4aR)-3-(difluoromethyl)-5,5-difluoro-3b,4,4a,5-tetrahydro-1H-cyclopropa[3,4]cyclopenta[1,2-c]pyrazol-1-yl)acetamide]
Recombinant NL4-3 virus
  EC50: 25 pM
[1]
  CC50 at 4 day: > 100000 pM

## Cn1nc(NS(C)(=O)=O)c2c(Cl)ccc(-n3c([C@H](Cc4cc(F)cc(F)c4)NC(=O)Cn4nc(C(F)F)c5c4C(F)(F)[C@@H]4C[C@H]54)nc4nc(-c5ccn(CC(F)(F)C(F)F)n5)ccc4c3=O)c21 (atropisomer, axis not shown; (P)) [Example 84, N-((S)-1-((3P)-3-(4-chloro-1-methyl-3-(methylsulfonamido)-1H-indazol-7-yl)-4-oxo-7-(1-(2,2,3,3-tetrafluoropropyl)-1H-pyrazol-3-yl)-3,4-dihydropyrido[2,3-d]pyrimidin-2-yl)-2-(3,5-difluorophenyl)ethyl)-2-((3bS,4aR)-3-(difluoromethyl)-5,5-difluoro-3b,4,4a,5-tetrahydro-1H-cyclopropa[3,4]cyclopenta[1,2-c]pyrazol-1-yl)acetamide]
Recombinant NL4-3 virus
  EC50: 41 pM
[1]
  CC50 at 4 day: > 100000 pM

## COc1cc(-c2ccc3c(=O)n(-c4ccc(Cl)c5c(NS(C)(=O)=O)nn(C)c45)c([C@H](Cc4cc(F)cc(F)c4)NC(=O)Cn4nc(C(F)F)c5c4C(F)(F)[C@@H]4C[C@H]54)nc3n2)ccn1 (atropisomer, axis not shown; (P)) [Example 59, N-((S)-1-((3P)-3-(4-chloro-1-methyl-3-(methylsulfonamido)-1H-indazol-7-yl)-7-(2-methoxypyridin-4-yl)-4-oxo-3,4-dihydropyrido[2,3-d]pyrimidin-2-yl)-2-(3,5-difluorophenyl)ethyl)-2-((3bS,4aR)-3-(difluoromethyl)-5,5-difluoro-3b,4,4a,5-tetrahydro-1H-cyclopropa[3,4]cyclopenta[1,2-c]pyrazol-1-yl)acetamide]
Recombinant NL4-3 virus
  EC50: 50 pM
[1]
  CC50 at 4 day: > 100000 pM

## Cn1nc(NS(C)(=O)=O)c2c(Cl)ccc(-n3c([C@H](Cc4cc(F)cc(F)c4)NC(=O)Cn4nc(C(F)F)c5c4C(F)(F)[C@@H]4C[C@H]54)nc4nc(-c5ncc(Cl)nc5Cl)ccc4c3=O)c21 (atropisomer, axis not shown; (P)) [Example 57, N-((S)-1-((3P)-3-(4-chloro-1-methyl-3-(methylsulfonamido)-1H-indazol-7-yl)-7-(3,5-dichloropyrazin-2-yl)-4-oxo-3,4-dihydropyrido[2,3-d]pyrimidin-2-yl)-2-(3,5-difluorophenyl)ethyl)-2-((3bS,4aR)-3-(difluoromethyl)-5,5-difluoro-3b,4,4a,5-tetrahydro-1H-cyclopropa[3,4]cyclopenta[1,2-c]pyrazol-1-yl)acetamide]
Recombinant NL4-3 virus
  EC50: 73 pM
[1]
  CC50 at 4 day: > 100000 pM

## Cn1nccc1-c1ccc2c(=O)n(-c3ccc(Cl)c4c(NS(C)(=O)=O)nn(C)c34)c([C@H](Cc3cc(F)cc(F)c3)NC(=O)Cn3nc(C(F)F)c4c3C(F)(F)[C@@H]3C[C@H]43)nc2n1 (atropisomer, axis not shown; (P)) [Example 68, N-((S)-1-((3P)-3-(4-chloro-1-methyl-3-(methylsulfonamido)-1H-indazol-7-yl)-7-(1-methyl-1H-pyrazol-5-yl)-4-oxo-3,4-dihydropyrido[2,3-d]pyrimidin-2-yl)-2-(3,5-difluorophenyl)ethyl)-2-((3bS,4aR)-3-(difluoromethyl)-5,5-difluoro-3b,4,4a,5-tetrahydro-1H-cyclopropa[3,4]cyclopenta[1,2-c]pyrazol-1-yl)acetamide]
Recombinant NL4-3 virus
  EC50: 49 pM
[1]
  CC50 at 4 day: > 100000 pM

## CCC(F)(F)Cn1ccc(-c2ccc3c(=O)n(-c4ccc(Cl)c5c(NS(C)(=O)=O)nn(C)c45)c([C@H](Cc4cc(F)cc(F)c4)NC(=O)Cn4nc(C(F)F)c5c4C(F)(F)[C@@H]4C[C@H]54)nc3n2)n1 (atropisomer, axis not shown; (P)) [Example 86, N-((S)-1-((3P)-3-(4-chloro-1-methyl-3-(methylsulfonamido)-1H-indazol-7-yl)-7-(1-(2,2-difluorobutyl)-1H-pyrazol-3-yl)-4-oxo-3,4-dihydropyrido[2,3-d]pyrimidin-2-yl)-2-(3,5-difluorophenyl)ethyl)-2-((3bS,4aR)-3-(difluoromethyl)-5,5-difluoro-3b,4,4a,5-tetrahydro-1H-cyclopropa[3,4]cyclopenta[1,2-c]pyrazol-1-yl)acetamide]
Recombinant NL4-3 virus
  EC50: 84 pM
[1]
  CC50 at 4 day: > 100000 pM

## Cc1cc(-c2ccc3c(=O)n(-c4ccc(Cl)c5c(NS(C)(=O)=O)nn(C)c45)c([C@H](Cc4cc(F)cc(F)c4)NC(=O)Cn4nc(C(F)F)c5c4C(F)(F)[C@@H]4C[C@H]54)nc3n2)ccn1 (atropisomer, axis not shown; (P)) [Example 48, N-((S)-1-((3P)-3-(4-chloro-1-methyl-3-(methylsulfonamido)-1H-indazol-7-yl)-7-(2-methylpyridin-4-yl)-4-oxo-3,4-dihydropyrido[2,3-d]pyrimidin-2-yl)-2-(3,5-difluorophenyl)ethyl)-2-((3bS,4aR)-3-(difluoromethyl)-5,5-difluoro-3b,4,4a,5-tetrahydro-1H-cyclopropa[3,4]cyclopenta[1,2-c]pyrazol-1-yl)acetamide]
Recombinant NL4-3 virus
  EC50: 53 pM
[1]
  CC50 at 4 day: > 100000 pM

## Cn1nc(NS(C)(=O)=O)c2c(Cl)ccc(-n3c([C@H](Cc4cc(F)cc(F)c4)NC(=O)Cn4nc(C(F)F)c5c4C(F)(F)[C@@H]4C[C@H]54)nc4nc(-c5nc(C(F)(F)F)ccc5F)ccc4c3=O)c21 (atropisomer, axis not shown; (P)) [Example 36, N-((S)-1-((3P)-3-(4-chloro-1-methyl-3-(methylsulfonamido)-1H-indazol-7-yl)-7-(3-fluoro-6-(trifluoromethyl)pyridin-2-yl)-4-oxo-3,4-dihydropyrido[2,3-d]pyrimidin-2-yl)-2-(3,5-difluorophenyl)ethyl)-2-((3bS,4aR)-3-(difluoromethyl)-5,5-difluoro-3b,4,4a,5-tetrahydro-1H-cyclopropa[3,4]cyclopenta[1,2-c]pyrazol-1-yl)acetamide]
Recombinant NL4-3 virus
  EC50: 45 pM
[1]
  CC50 at 4 day: > 100000 pM

## Cc1ccnc(-c2ccc3c(=O)n(-c4ccc(Cl)c5c(NS(C)(=O)=O)nn(C)c45)c([C@H](Cc4cc(F)cc(F)c4)NC(=O)Cn4nc(C(F)F)c5c4C(F)(F)[C@@H]4C[C@H]54)nc3n2)c1 (atropisomer, axis not shown; (P)) [Example 49, N-((S)-1-((3P)-3-(4-chloro-1-methyl-3-(methylsulfonamido)-1H-indazol-7-yl)-7-(4-methylpyridin-2-yl)-4-oxo-3,4-dihydropyrido[2,3-d]pyrimidin-2-yl)-2-(3,5-difluorophenyl)ethyl)-2-((3bS,4aR)-3-(difluoromethyl)-5,5-difluoro-3b,4,4a,5-tetrahydro-1H-cyclopropa[3,4]cyclopenta[1,2-c]pyrazol-1-yl)acetamide]
Recombinant NL4-3 virus
  EC50: 18 pM
[1]
  CC50 at 4 day: > 100000 pM

## Cn1nc(NS(C)(=O)=O)c2c(Cl)ccc(-n3c([C@H](Cc4cc(F)cc(F)c4)NC(=O)Cn4nc(C(F)F)c5c4C(F)(F)[C@@H]4C[C@H]54)nc4nc(-c5cccc(Cl)n5)ccc4c3=O)c21 (atropisomer, axis not shown; (P)) [Example 50, N-((S)-1-((3P)-3-(4-chloro-1-methyl-3-(methylsulfonamido)-1H -indazol-7-yl)-7-(6-chloropyridin-2-yl)-4-oxo-3,4-dihydropyrido[2,3-d]pyrimidin-2-yl)-2-(3,5-difluorophenyl)ethyl)-2-((3bS,4aR)-3-(difluoromethyl)-5,5-difluoro-3b,4,4a,5-tetrahydro-1H-cyclopropa[3,4]cyclopenta[1,2-c]pyrazol-1-yl)acetamide]
Recombinant NL4-3 virus
  EC50: 56 pM
[1]
  CC50 at 4 day: > 100000 pM
